We go through 4 molecules from US8658353B2, “Liver cell toxicity assay” (Corning Incorporated, priority 2008, dated 2014).

The subject of data set [1] is human lung cancer cell line A549. Description: Label-free biosensor DMR assay of A549 cells exposed to 2 mM H2O2 with or without thrombin pretreatment. Format: cell-based. As for the experimental part:
The kinetic responses were normalized at the time point 2 min before the addition of H2O2.
(§1) The cell responses were recorded continuously.
The large amplitude of the second N-DMR signal indicates the significant loss of local biomass density within the detection zone of the biosensor, indicative of cell apoptosis which leads to the release of cellular matters from the bottom portion of cells cultured on the biosensor surface. […] The onset time for the second N-DMR event is delayed by at least 15 min.

Data set [2] relates to primary liver cells. Description: Label-free biosensor DMR assay, direct exposure of primary liver cells in biosensor sandwich culture. Format: cell-based, Human. Conditions: for DMR signal upon exposure to compound alone: all doses examined. Here is the method: Collagen coating of the biosensor microplates was achieved by dispensing 10 μl collagen I (10 μg/ml) into each well, and followed by slow drying over night under controlled vacuum condition. This coating process takes advantage of slow self-assembly of collagen I, and results in an un-even coating consisting of a series of clusters of collagen I, thus providing microscale or nanoscale topology of ECM materials to liver cells to form Epic® 384well biosensor microplate collagen coated.
The RWG biosensor exploits its evanescent wave to measure ligand-induced DMR signals in cells. The evanescent wave extends into the cells and exponentially decays over distance, leading to a characteristic sensing volume of ˜150 nm, implying that any optical response mediated through the receptor activation only represents an average over the portion of the cell that the evanescent wave is sampling. The aggregation of many cellular events downstream the receptor activation determines the kinetics and amplitudes of a ligand-induced DMR.
as §1

The test system of data set [3] is primary liver cells. Description: Label-free biosensor DMR assay, 1 mM H2O2 as amplifying marker after compound pretreatment of primary liver cells. Conditions: then 1 mM H2O2.

Take `OO` [H2O2, hydrogen peroxide]: the “DMR signal of A549 cells” value in data set [1] (2 mM H2O2, no thrombin pretreatment) is on record as “complicated DMR signal, consisting of four phases”. Further, the “DMR response (change in local biomass)” value in data set [2] (1 mM H2O2) was “did not trigger any significant change in local biomass”. Further, in data set [2] (5 mM H2O2), the DMR response entry is reported as “significant negative DMR (N-DMR) signal”. Besides, in data set [2] (after treatment with 5 mM H2O2), the “onset time for the N-DMR signal” value was “around 30 min”.

Turning to `C[S+]([O-])c1ccc(-c2nc(-c3ccncc3)c(-c3ccc(F)cc3)[nH]2)cc1` (centres unmarked) [SB203580], the “DMR signal upon exposure to compound alone” value in data set [2] (625 nanomolar up to 10000 nanomolar) is on record as “did not result in any significant DMR signal”. In addition, in data set [3] (high doses of SB203580, pretreatment ~1-4 hrs), the “H2O2-induced DMR signal after pretreatment” value was “responded to 1 mM H2O2 exposure with a N-DMR”.

Take `CO[C@H]1/C=C/O[C@@]2(C)Oc3c(C)c(O)c4c(O)c(c(/C=N/N5CCN(C)CC5)c(O)c4c3C2=O)NC(=O)/C(C)=C\C=C\[C@H](C)[C@H](O)[C@@H](C)[C@@H](O)[C@@H](C)[C@H](OC(C)=O)[C@@H]1C` [rifampin, Rifampin]: in data set [2] (rifampin 625 nM up to 40000 nM), the “DMR signal upon exposure to compound alone” value was “did not result in any significant loss in local biomass density or cause any significant DMR signal”. In data set [3] (rifampin pretreatment ~1-4 hrs), the “H2O2-induced DMR signal after pretreatment” value is reported as “rifampin dose dependent N-DMR”.

For thrombin, the “delay of onset time for the second N-DMR event” value in data set [1] (thrombin pretreatment 1 to 16 unit/ml, then 2 mM H2O2) is given as “at least 15 min”. The “potency to alter the H2O2 response, based on amplitudes of the rapid P-DMR event” value in data set [1] (thrombin pretreatment 1 hr, then 2 mM H2O2, said to correspond to EC50 for endogenous PAR1 activation) was about 4 unit/ml. Besides, in data set [1] (thrombin pretreatment, then 2 mM H2O2), the “effect on H2O2-induced A549 apoptosis” value is on record as “protective of H2O2-induced A549 apoptosis”.
